The values that follow come from patent US6503939B2, “Combination regimens using 3,3-substituted indoline derivatives” (Wyeth, priority 1999, dated 2003).

Structures are written as SMILES.

On to `CC1Nc2ccc(-c3cccc([N+](=O)[O-])c3)cc2C1(C)C.Cl` (stereo not shown), for which the melting point fell in the range of 240 to 241 °C.
